From US20250248960A1, “Methods for Providing Rapid Relief of Motor Fluctuations in a Parkinson's Disease Patient” (priority 2012, published 2025)

System: Parkinson's disease patients
Test: Phase 2 study: plasma levodopa concentrations compared to UPDRS scores (off/on state)
Type: in vivo, human
Details: plasma levels vs UPDRS scores, FIG. 8
Method: The twenty four (24) patients treated in this study underwent serial evaluations of L-dopa plasma levels, motor response, and safety at each visit. The patients were administered the study drug in the OFF state with the serial evaluations starting prior to dosing and continuing for up to 180 minutes post-dose. Motor function was measured using a tapping test, the Unified Parkinson's Disease Rating Scale Part III (UPDRS III), and subjective evaluation of “meaningful” ON and OFF. Safety parameters monitored included pulmonary function, clinical laboratory data, EGCs, and vital signs (blood pressure, heart rate, and orthostatic blood pressure). This study was designed to measure the time, magnitude, and durability of pulmonary levodopa's effect on motor function, to evaluate the safety and tolerability of pulmonary levodopa in Parkinson's disease patients.
In FIG. 8, patient's plasma levodopa concentrations are being compared to UPDRS scores. UPDRS is a standard test for Parkinson's disease patients to test their response to drug treatment and their disease progression. […] As little as 200-400 ng/ml of levodopa plasma concentration makes the difference between being in the off state and being in the on state. […]

SMILES: N[C@@H](Cc1ccc(O)c(O)c1)C(=O)O [L-Dopa, levodopa]
- levodopa plasma concentration difference between being in the off state and being in the on state: 200 to 400 ng/mL
